Reference: ChEMBL document CHEMBL1201862, “PubChem BioAssay data set” (2004)
Activity calls are given as the source filed them.

Key:
SUMO-activating enzyme [1] = molecular target: T1, SUMO-activating enzyme (Homo sapiens, UniProt Q9UBT2); assay: SUMOylation inhibitor hit validation, confirmation, SUMOylation inhibitor project, biochemical, AlphaScreen (AID 2018); format: functional
SUMO-activating enzyme [2] = molecular target: T1, SUMO-activating enzyme; assay: inhibitors of in vitro SUMOylation cascade, primary screen, biochemical, HTRF, uHTS (AID 2006); format: protein-complex assay
ORF 73 = molecular target: T2, ORF 73 (Human herpesvirus 8, UniProt O40947); assay: inhibitors of C-LANA binding to LBS DNA, dose response, biochemical, fluorescence polarization, cherry-picked samples (AID 504725); set-up: species or system Human gammaherpesvirus 8;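 further: fluorescence polarization of a labeled DNA duplex reporting LANA DNA binding; potency is for inhibitors that block LANA binding to the DNA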
T2 sequence (O40947 whole entry): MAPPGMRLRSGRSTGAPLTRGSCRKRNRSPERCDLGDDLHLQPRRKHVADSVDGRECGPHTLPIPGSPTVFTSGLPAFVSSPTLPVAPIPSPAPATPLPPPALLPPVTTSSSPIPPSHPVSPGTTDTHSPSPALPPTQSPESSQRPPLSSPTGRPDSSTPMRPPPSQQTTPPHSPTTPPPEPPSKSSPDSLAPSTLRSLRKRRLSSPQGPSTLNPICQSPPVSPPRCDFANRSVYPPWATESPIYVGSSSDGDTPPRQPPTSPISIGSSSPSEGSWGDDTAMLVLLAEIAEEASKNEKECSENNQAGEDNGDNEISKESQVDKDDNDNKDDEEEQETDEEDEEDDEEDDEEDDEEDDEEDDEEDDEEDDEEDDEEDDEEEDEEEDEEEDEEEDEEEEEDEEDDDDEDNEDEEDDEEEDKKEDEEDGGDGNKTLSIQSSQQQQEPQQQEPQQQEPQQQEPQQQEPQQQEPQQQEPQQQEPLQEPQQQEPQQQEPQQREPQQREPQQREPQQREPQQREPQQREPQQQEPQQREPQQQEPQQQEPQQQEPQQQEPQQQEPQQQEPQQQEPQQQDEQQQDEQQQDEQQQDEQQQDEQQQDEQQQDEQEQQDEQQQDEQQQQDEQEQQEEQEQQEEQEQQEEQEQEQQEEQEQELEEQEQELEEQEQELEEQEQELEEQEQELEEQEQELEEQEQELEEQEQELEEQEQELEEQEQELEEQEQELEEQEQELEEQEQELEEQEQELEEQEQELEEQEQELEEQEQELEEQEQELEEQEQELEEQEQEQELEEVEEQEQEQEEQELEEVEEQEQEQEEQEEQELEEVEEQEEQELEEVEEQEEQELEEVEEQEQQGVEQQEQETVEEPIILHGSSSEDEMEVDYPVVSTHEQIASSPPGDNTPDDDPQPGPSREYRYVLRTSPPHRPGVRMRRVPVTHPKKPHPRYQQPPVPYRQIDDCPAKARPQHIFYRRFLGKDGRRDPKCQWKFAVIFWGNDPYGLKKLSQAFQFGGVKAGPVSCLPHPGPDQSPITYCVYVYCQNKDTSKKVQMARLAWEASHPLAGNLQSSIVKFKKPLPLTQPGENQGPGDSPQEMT

[3] = molecular target: Eukaryotic translation initiation factor 4H (Homo sapiens, UniProt Q15056); assay: human eIF4H binding inhibitors, primary screen, translation initiation inhibitor project, biochemical, uHTS, fluorescence polarization (AID 2012)
[4] = molecular target: Polyadenylate-binding protein 1 (Homo sapiens, UniProt P11940); assay: PABP poly(A) RNA binding inhibitors, primary screen, biochemical, fluorescence polarization, uHTS (AID 2014)
[5] = A cytotoxicity screen of small molecule inhibitors of the PhoP region in Salmonella typhi identified in the primary screen. [Related pubchem assays: 1850, 1864, 1985 ]; format: functional
Leucine aminopeptidase = molecular target: T3, Leucine aminopeptidase (Plasmodium falciparum 3D7, UniProt Q8IL11); assay: P. falciparum M17LAP inhibitors, primary screen, biochemical, fluorogenic H-Leu-NHMec substrate, 1536-well (AID 1619); format: functional
T3 sequence (Q8IL11 whole entry): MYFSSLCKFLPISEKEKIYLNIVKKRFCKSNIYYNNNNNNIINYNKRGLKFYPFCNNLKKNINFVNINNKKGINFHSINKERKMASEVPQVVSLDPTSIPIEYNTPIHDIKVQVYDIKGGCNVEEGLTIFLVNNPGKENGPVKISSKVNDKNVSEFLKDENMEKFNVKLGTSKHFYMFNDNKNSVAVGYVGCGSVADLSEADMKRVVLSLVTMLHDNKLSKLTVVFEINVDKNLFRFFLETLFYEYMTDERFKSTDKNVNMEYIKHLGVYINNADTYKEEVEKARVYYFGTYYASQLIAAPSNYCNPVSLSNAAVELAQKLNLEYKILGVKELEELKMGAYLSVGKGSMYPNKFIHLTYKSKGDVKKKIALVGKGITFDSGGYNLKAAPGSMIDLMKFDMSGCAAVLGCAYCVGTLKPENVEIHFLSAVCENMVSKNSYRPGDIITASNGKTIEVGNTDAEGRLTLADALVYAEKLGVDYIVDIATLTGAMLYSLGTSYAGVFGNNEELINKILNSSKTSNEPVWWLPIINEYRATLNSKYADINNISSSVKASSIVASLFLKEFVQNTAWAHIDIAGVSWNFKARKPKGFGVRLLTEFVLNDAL

Aspartyl aminopeptidase = molecular target: T4, Aspartyl aminopeptidase (Plasmodium falciparum 3D7, UniProt Q8I2J3); assay: Counterscreen for inhibitors of M1 and M17 aminopeptidases: QFRET-based biochemical high throughput dose response assay for inhibitors of the Plasmodium falciparum M18 Aspartyl Aminopeptidase (PFM18AAP). [Related PubChem assays: 1619 (Screening assay (M17LAP inhibitors).), 1445 (Screening assay (M1AAP inhibitors).)]
T4 sequence (Q8I2J3 whole entry): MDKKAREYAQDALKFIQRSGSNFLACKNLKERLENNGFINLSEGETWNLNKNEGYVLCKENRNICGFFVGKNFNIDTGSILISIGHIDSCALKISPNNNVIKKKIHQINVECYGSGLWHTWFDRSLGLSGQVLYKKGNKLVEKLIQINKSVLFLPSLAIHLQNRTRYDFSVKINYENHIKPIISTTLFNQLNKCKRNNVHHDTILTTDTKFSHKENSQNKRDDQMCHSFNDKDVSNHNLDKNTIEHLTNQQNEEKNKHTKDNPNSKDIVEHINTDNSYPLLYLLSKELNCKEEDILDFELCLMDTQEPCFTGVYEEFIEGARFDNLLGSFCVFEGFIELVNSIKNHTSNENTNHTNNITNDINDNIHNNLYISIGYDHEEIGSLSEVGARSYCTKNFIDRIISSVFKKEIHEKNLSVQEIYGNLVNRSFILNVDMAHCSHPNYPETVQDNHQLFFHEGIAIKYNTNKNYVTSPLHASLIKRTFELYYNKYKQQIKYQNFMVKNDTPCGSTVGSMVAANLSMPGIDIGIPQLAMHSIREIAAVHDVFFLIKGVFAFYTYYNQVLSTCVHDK

Procathepsin L = Procathepsin L (Homo sapiens, UniProt P07711); assay: cathepsin L inhibitors, dose response, counter-screen for M1/M17 aminopeptidase inhibitor project, biochemical, QFRET, 1536-well (AID 2214)
[6] = molecular target: Luciferin 4-monooxygenase (Photinus pyralis, UniProt P08659); assay: Counter Screen for Luciferase-based Assay Positives. [Related pubchem assays: 620, 618, 411 ]
HT-1080 = assay: cytotoxicity in HT1080 fibrosarcoma cells, cell-based, fluorescence readout (AID 620); format: functional; conditions: Homo sapiens
HEK293 = assay: inhibitors of LMP1-driven NF-kB reporter, dose response, cell-based, HEK293, luciferase, cherry-pick (AID 588343); format: functional; conditions: Homo sapiens
[7] = inhibitors of intracellular T. cruzi replication, confirmation, NIH3T3 host cells, beta-gal luminescence (AID 2044); format: functional, cell-based;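 further: intracellular parasites grown in NIH/3T3 mouse fibroblasts as host cells; luminescent beta-galactosidase reporter signal from transgenic T. cruzi replicating inside host cells; inhibitors lower the luminescence signal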
[8] = cytotoxicity toward NIH3T3 fibroblasts, dose response, counter-screen, cell-based, ATP luminescence, mouse fibroblasts (AID 2010); format: functional;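 further: cells exposed to compound for about 90 hours before reading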
[9] = molecular target: T5, Acyl-homoserine lactone acylase PvdQ (Pseudomonas aeruginosa (strain LESB58), UniProt Q9I194); assay: P. aeruginosa PvdQ acylase inhibitors, dose response, biochemical, fluorescence, plate reader and imaging, cherry-picks (AID 493231)
T5 sequence (Q9I194 whole entry): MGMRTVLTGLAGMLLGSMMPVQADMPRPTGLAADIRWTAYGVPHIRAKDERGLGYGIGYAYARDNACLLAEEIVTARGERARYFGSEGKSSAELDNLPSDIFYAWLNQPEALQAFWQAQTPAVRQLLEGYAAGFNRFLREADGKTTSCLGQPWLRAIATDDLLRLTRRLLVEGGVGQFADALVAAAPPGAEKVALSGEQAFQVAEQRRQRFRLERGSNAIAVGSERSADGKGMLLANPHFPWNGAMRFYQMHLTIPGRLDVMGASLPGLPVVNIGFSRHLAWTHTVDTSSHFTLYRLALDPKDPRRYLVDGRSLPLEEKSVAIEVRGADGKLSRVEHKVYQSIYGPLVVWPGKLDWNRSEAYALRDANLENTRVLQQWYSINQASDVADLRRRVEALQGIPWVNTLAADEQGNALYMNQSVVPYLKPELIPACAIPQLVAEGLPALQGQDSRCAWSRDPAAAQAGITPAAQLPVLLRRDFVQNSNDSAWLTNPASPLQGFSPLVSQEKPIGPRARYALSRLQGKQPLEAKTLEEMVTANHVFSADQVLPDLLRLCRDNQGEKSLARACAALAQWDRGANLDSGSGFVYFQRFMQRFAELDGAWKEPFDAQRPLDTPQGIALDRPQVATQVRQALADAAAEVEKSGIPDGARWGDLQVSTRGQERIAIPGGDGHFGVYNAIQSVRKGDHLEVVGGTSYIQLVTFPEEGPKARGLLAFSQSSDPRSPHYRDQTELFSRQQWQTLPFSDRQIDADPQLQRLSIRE

[10] = molecular target: T6, Ubiquitin-conjugating enzyme E2 N (Homo sapiens, UniProt P61088); format: functional;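 further: Dose-response confirmation in a TR-FRET assay detecting UBC13-driven polyubiquitin chain formation, inhibition measured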
T6 sequence (P61088 whole entry): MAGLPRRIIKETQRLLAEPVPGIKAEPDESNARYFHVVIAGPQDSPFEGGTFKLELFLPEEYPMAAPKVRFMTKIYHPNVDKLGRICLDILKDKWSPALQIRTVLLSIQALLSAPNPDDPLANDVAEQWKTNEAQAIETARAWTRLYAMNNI

T1 sequence (Q9UBE0 whole entry): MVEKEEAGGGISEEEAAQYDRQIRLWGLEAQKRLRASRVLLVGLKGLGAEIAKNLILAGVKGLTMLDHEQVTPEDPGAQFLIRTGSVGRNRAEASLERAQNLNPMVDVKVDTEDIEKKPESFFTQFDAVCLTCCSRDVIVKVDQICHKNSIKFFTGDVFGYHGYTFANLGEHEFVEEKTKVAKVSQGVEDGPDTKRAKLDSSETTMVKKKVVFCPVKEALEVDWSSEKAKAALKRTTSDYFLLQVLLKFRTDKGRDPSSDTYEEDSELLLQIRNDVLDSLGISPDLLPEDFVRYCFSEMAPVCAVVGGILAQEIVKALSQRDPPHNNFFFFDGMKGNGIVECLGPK
T1 sequence (Q9UBT2 whole entry): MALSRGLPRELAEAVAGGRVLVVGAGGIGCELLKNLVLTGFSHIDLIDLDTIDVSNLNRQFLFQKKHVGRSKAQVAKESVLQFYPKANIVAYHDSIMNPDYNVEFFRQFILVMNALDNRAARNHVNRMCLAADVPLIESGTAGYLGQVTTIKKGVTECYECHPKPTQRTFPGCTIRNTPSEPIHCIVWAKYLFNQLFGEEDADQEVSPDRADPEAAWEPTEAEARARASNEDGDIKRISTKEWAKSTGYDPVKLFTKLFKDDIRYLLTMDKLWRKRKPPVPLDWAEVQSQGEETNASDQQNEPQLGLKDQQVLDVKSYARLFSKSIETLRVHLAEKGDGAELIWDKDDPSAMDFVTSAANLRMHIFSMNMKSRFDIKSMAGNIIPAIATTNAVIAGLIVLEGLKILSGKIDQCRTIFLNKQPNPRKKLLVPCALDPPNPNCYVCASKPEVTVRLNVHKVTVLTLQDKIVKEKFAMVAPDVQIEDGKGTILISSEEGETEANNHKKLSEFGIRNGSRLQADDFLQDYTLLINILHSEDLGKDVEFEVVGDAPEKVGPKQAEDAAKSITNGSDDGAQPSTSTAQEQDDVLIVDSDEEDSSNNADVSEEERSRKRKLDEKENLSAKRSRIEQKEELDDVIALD
Sequence of Polyadenylate-binding protein 1 (P11940 whole entry): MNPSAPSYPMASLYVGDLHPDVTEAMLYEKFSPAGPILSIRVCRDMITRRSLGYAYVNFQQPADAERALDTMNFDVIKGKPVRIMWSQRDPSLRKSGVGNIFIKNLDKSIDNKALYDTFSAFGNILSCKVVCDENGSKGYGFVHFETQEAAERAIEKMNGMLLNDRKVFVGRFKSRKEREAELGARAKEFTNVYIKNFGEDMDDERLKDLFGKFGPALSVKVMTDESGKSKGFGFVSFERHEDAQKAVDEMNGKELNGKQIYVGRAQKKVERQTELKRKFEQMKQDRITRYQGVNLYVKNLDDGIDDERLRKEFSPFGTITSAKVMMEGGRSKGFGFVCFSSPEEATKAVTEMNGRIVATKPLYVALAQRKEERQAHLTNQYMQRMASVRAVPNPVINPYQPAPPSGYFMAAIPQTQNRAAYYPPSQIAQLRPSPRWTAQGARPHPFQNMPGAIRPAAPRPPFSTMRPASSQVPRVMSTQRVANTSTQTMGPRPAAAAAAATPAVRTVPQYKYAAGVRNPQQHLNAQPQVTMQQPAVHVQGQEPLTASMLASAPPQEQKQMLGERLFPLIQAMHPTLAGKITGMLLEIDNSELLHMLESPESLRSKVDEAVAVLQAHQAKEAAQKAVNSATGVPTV
Sequence of Procathepsin L (P07711 whole entry): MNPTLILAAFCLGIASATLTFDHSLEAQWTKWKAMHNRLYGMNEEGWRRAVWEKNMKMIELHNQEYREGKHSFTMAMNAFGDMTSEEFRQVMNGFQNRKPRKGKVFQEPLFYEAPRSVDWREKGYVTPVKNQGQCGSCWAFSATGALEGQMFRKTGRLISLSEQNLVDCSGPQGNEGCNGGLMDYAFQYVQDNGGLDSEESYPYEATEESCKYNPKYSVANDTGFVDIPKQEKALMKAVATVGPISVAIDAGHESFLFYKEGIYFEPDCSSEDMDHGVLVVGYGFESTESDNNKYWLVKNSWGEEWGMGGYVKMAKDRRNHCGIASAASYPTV
Sequence of Luciferin 4-monooxygenase (P08659 whole entry): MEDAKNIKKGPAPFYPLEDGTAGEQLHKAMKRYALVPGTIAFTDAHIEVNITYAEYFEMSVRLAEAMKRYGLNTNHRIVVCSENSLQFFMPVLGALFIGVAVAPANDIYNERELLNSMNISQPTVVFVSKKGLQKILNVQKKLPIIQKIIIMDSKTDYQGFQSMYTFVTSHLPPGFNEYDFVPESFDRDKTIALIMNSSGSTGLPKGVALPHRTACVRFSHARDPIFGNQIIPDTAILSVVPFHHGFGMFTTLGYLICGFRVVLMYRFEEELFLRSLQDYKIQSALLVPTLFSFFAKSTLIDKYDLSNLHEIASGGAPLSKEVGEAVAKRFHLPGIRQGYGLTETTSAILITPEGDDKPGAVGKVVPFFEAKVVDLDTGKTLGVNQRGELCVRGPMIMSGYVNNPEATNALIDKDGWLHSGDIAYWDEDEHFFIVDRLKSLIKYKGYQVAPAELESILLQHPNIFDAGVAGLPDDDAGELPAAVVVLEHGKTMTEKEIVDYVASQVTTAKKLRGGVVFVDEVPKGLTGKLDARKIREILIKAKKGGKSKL

What does the source list for `COc1cc2c(cc1OC)-c1cc3ccc4c(c3c[n+]1CC2)OCO4`?
IC50 (SUMO-activating enzyme [1]): 4.17 µM (active); IC50 (SUMO-activating enzyme [2]): 8.68 µM (active); AC50 (ORF 73): 20.5 µM (active)

For `O=C(NC(Cc1ccccc1)C(=O)Oc1ccc2c(C(F)(F)F)cc(=O)oc2c1)OCc1ccccc1` (stereo unspecified), which IC50 [3] is on record?
The IC50 was > 100 µM (inactive).

And the IC50 [4]?
Its IC50 is > 100 µM (inactive).

Which EC50 [5] does the source give for `CNc1nc(SC)n(C)c(=O)c1N=O` here?
The EC50 was > 50 µM (active).

Which IC50 (Leucine aminopeptidase) does the source give for `COC(=O)c1c(-c2ccc(C)cc2)csc1NC(=O)C1CC=CCC1C(=O)O` (stereo unspecified) here?
Its IC50 is 1.2 µM (active).

What about the IC50 (Aspartyl aminopeptidase) of the same compound?
Its IC50 is > 73.5 µM (not active).

What about the IC50 (Procathepsin L) of the same compound?
The IC50 was > 59.6 µM (not active).

With `c1ccc(OCCSc2nnc3sc4ccccc4n23)cc1` as the compound, how does the EC50 [6] read?
Its EC50 is > 100 µM (not active).

And the EC50 (HT-1080)?
Its EC50 is 14.8 µM (active).

What about the AC50 (HEK293) of the same compound?
Its AC50 is 1.29 µM (active).

Which EC50 [7] does the source give for `O=C(NCC1CC1)c1cc([N+](=O)[O-])cc([N+](=O)[O-])c1` here?
Its EC50 is 0.622 µM (active).

What about the EC50 [8] of the same compound?
Its EC50 is > 60 µM (not active).

What about the AC50 [9] of the same compound?
The AC50 was 3.55 µM (active).

For `O=S(=O)(c1ccc(NC(=S)NN=C(C2CC2)C2CC2)cc1)N1CCOCC1`, which IC50 [10] is on record?
Its IC50 is > 20 µM (inactive).
